# According to patent US11690860B2, “Treatment of HCV infected patients with cirrhosis” (Atea Pharmaceuticals, Inc., priority 2018, dated 2023):
# “Also recorded” adds a separate entry of the source. Read-outs that look alike come from different tables or passages of the source.
# What was measured:
# HCV GT3 replicons = assay: EC95 in replicons containing HCV constructs of clinical isolates, GT3; assay type: cell-based; conditions: HCV GT3, expressed as equivalents of metabolite 1-7
# Description: (§1) For rapidly-replicating viruses such as HCV, maintenance of antiviral activity throughout inter-dose time intervals optimizes efficacy by reducing chances for recrudescent viral replication during inter-dose trough periods. […] In those cohorts receiving 600 mg QD, ˜30% of subjects achieved HCV RNA below the lower limit of quantitation with only seven days of therapy.
# HCV GT2 replicons = assay: EC95 in replicons containing HCV constructs of clinical isolates, GT2; assay type: cell-based; conditions: HCV GT2, expressed as equivalents of metabolite 1-7
# Description: as §1
# [1] = Plasma pharmacokinetics of Compound 1 and metabolite 1-7 (LC-MS/MS) in Parts C, D and E; assay type: in vivo, human; conditions: for AUC Day 1 (AUCinf for Compound 1) / Cmax / half-life / Tmax / AUC SS (AUCinf for Compound 1): n=6; for Cmax / half-life / Tmax: human, in vivo
# Description: Doses were administered as the Compound 2 salt base. The free base Compound 1 equivalent is often given in parenthesis.
# Part C was a randomized, double-blind, placebo-controlled MAD study divided into three cohorts. […] The dose escalation only proceeded following satisfactory review of the data.
# HCV-infected patients were treatment-naïve with HCV RNA ≥5 log 10 IU/mL. HCV RNA was quantified using COBAS® AmpliPrep TaqMAN® v2.0 with LLQ of 15 IU/mL. Plasma drug levels were measured using LC-MS/MS. […] Cirrhosis was confirmed by prior liver biopsy or Fibroscan >12.5 kPa. […] Mean ages of enrolled subjects were 44, 39, and 56 years in the non-cirrhotic GT1b 600 mg dose cohort, non-cirrhotic GT3 cohort, and the cirrhotic cohort, respectively.
# Plasma levels of metabolite 1-7 were measured using LC-MS/MS.
# [2] = Part C, daily dosing for 7 days
smiles,measurement,setting,value
"CNc1nc(N)nc2c1ncn2[C@@H]1O[C@H](CO[P@@](=O)(N[C@@H](C)C(=O)OC(C)C)Oc2ccccc2)[C@@H](O)[C@@]1(C)F [Compound 1, isopropyl((S)-(((2R,3R,4R,5R)-5-(2-amino-6-(methylamino)-9H-purin-9-yl)-4-fluoro-3-hydroxy-4-methyltetrahydrofuran-2-yl)methoxy)(phenoxy)phosphoryl)-L-alaninate]",EC95,HCV GT3 replicons,~0.018 µg/mL
same,EC95,HCV GT2 replicons,~0.012 µg/mL
same,PK in cirrhotic compared with non-cirrhotic subjects,"[1]; 600 mg QD of Compound 2, Parts C/D vs Part E",comparable
same,dose proportionality of plasma exposure (peak and total),"[1]; Part C, 150 to 600 mg Compound 2",slightly more than dose proportional from 150 mg to 300 mg and mostly dose proportional thereafter
same,AUC Day 1 (AUCinf for Compound 1),"[1]; Part C, NC GT1b, 150 mg/d Compound 2 QD",492 ± 141 ng/mLxh
same,AUC Day 1 (AUCinf for Compound 1),"[1]; Part C, NC GT1b, 300 mg/d Compound 2 QD",1947 ± 1120 ng/mLxh
same,AUC Day 1 (AUCinf for Compound 1),"[1]; Part C, NC GT1b, 600 mg/d Compound 2 QD",3335 ± 1502 ng/mLxh
same,accumulation,[1]; [2],did not accumulate over time
same,half-life (in words),[1]; [2],short half-life
same,AUC Day 1 (AUCinf for Compound 1),"[1]; Part D, NC GT3, 600 mg/d Compound 2 QD",3333 ± 1241 ng/mLxh
same,AUC Day 1 (AUCinf for Compound 1),"[1]; Part E, Child-Pugh A cirrhotic, 600 mg/d Compound 2 QD",3323 ± 1467 ng/mLxh
same,absorption,"[1]; after administration of Compound 2, fasted state",rapidly and well-absorbed; also recorded: quickly absorbed
same,estimated fraction absorbed,[1]; based on urine recovery,~50%
same,Cmax,"[1]; 150 mg/d, Part C, NC GT1b, 150 mg/d Compound 2 QD, read-out: Cmax Day 1",573 ± 280 ng/mL
same,half-life,"[1]; 150 mg/d, Part C, NC GT1b, 150 mg/d Compound 2 QD, read-out: T1/2 Day 1 (converted)",37.2 min
same,Tmax,"[1]; 150 mg/d, Part C, NC GT1b, 150 mg/d Compound 2 QD, read-out: Tmax Day 1",30 min
same,Cmax,"[1]; 150 mg/d, steady state, Part C, NC GT1b, 150 mg/d Compound 2 QD, read-out: Cmax SS",462 ± 409 ng/mL
same,half-life,"[1]; 150 mg/d, steady state, Part C, NC GT1b, 150 mg/d Compound 2 QD, read-out: T1/2 SS (converted)",38.4 min
same,Tmax,"[1]; 150 mg/d, steady state, Part C, NC GT1b, 150 mg/d Compound 2 QD, read-out: Tmax SS",60 min
same,Cmax,"[1]; 300 mg/d, Part C, NC GT1b, 300 mg/d Compound 2 QD, read-out: Cmax Day 1",2280 ± 893 ng/mL
same,half-life,"[1]; 300 mg/d, Part C, NC GT1b, 300 mg/d Compound 2 QD, read-out: T1/2 Day 1 (converted)",48 min
same,Tmax,"[1]; 300 mg/d, Part C, NC GT1b, 300 mg/d Compound 2 QD, read-out: Tmax Day 1",30 min
same,Cmax,"[1]; 300 mg/d, steady state, Part C, NC GT1b, 300 mg/d Compound 2 QD, read-out: Cmax SS",1830 ± 1310 ng/mL
same,half-life,"[1]; 300 mg/d, steady state, Part C, NC GT1b, 300 mg/d Compound 2 QD, read-out: T1/2 SS (converted)",43.8 min
same,Tmax,"[1]; 300 mg/d, steady state, Part C, NC GT1b, 300 mg/d Compound 2 QD, read-out: Tmax SS",30 min
same,Cmax,"[1]; 600 mg/d, Part C, NC GT1b, 600 mg/d Compound 2 QD, read-out: Cmax Day 1",4210 ± 2300 ng/mL
same,half-life,"[1]; 600 mg/d, Part C, NC GT1b, 600 mg/d Compound 2 QD, read-out: T1/2 Day 1 (converted)",51.6 min
same,Tmax,"[1]; 600 mg/d, Part C, NC GT1b, 600 mg/d Compound 2 QD, read-out: Tmax Day 1",30 min
same,Cmax,"[1]; 600 mg/d, Part D, NC GT3, 600 mg/d Compound 2 QD, read-out: Cmax Day 1",3970 ± 1940 ng/mL
same,half-life,"[1]; 600 mg/d, Part D, NC GT3, 600 mg/d Compound 2 QD, read-out: T1/2 Day 1 (converted)",43.8 min
same,Tmax,"[1]; 600 mg/d, Part D, NC GT3, 600 mg/d Compound 2 QD, read-out: Tmax Day 1",30 min
same,Cmax,"[1]; 600 mg/d, Part E, Child-Pugh A cirrhotic, 600 mg/d Compound 2 QD, read-out: Cmax Day 1",3410 ± 2180 ng/mL
same,half-life,"[1]; 600 mg/d, Part E, Child-Pugh A cirrhotic, 600 mg/d Compound 2 QD, read-out: T1/2 Day 1 (converted)",51.6 min
same,Tmax,"[1]; 600 mg/d, Part E, Child-Pugh A cirrhotic, 600 mg/d Compound 2 QD, read-out: Tmax Day 1",30 min
same,Cmax,"[1]; 600 mg/d, steady state, Part C, NC GT1b, 600 mg/d Compound 2 QD, read-out: Cmax SS",3600 ± 1740 ng/mL
same,half-life,"[1]; 600 mg/d, steady state, Part C, NC GT1b, 600 mg/d Compound 2 QD, read-out: T1/2 SS (converted)",51 min
same,Tmax,"[1]; 600 mg/d, steady state, Part C, NC GT1b, 600 mg/d Compound 2 QD, read-out: Tmax SS",30 min
same,Cmax,"[1]; 600 mg/d, steady state, Part D, NC GT3, 600 mg/d Compound 2 QD, read-out: Cmax SS",4140 ± 2280 ng/mL
same,half-life,"[1]; 600 mg/d, steady state, Part D, NC GT3, 600 mg/d Compound 2 QD, read-out: T1/2 SS (converted)",49.8 min
same,Tmax,"[1]; 600 mg/d, steady state, Part D, NC GT3, 600 mg/d Compound 2 QD, read-out: Tmax SS",30 min
same,Cmax,"[1]; 600 mg/d, steady state, Part E, Child-Pugh A cirrhotic, 600 mg/d Compound 2 QD, read-out: Cmax SS",3190 ± 2080 ng/mL
same,half-life,"[1]; 600 mg/d, steady state, Part E, Child-Pugh A cirrhotic, 600 mg/d Compound 2 QD, read-out: T1/2 SS (converted)",48.6 min
same,Tmax,"[1]; 600 mg/d, steady state, Part E, Child-Pugh A cirrhotic, 600 mg/d Compound 2 QD, read-out: Tmax SS",30 min
same,AUC SS (AUCinf for Compound 1),"[1]; steady state, Part C, NC GT1b, 150 mg/d Compound 2 QD",475 ± 301 ng/mLxh
same,AUC SS (AUCinf for Compound 1),"[1]; steady state, Part C, NC GT1b, 300 mg/d Compound 2 QD",1510 ± 976 ng/mLxh
same,AUC SS (AUCinf for Compound 1),"[1]; steady state, Part C, NC GT1b, 600 mg/d Compound 2 QD",4036 ± 2093 ng/mLxh
same,AUC SS (AUCinf for Compound 1),"[1]; steady state, Part D, NC GT3, 600 mg/d Compound 2 QD",3754 ± 2275 ng/mLxh
same,AUC SS (AUCinf for Compound 1),"[1]; steady state, Part E, Child-Pugh A cirrhotic, 600 mg/d Compound 2 QD",3527 ± 1605 ng/mLxh
